# Experiment: Parallel artificial membrane permeability assay (PAMPA) for blood-brain barrier permeation, PSR4p analyzer
# Conditions: for Pe (linear velocity of permeation): pH 7.4 buffer, 18 h, ambient temperature, literature compounds, averaged; for Papp at 18 h, 25 µg/mL: pig, PAMPA, pH 7.4
# Source text: In actual practice, a solution of known concentration of a compound or mixture of compounds in a buffer solution is separated from a buffer solution containing 0% concentration of said compound or mixture of compounds by a porous filter membrane impregnated with a mixture of brain polar lipid extract and dodecane in such a way that the surface of each buffer solution is in contact with opposite sides of said impregnated membrane. After a measured period of time, the concentration of said compound or mixture of compounds is determined for each buffer solution and the rate of diffusion is calculated.
# In one embodiment of the invention, a 96-well plate filled with solutions of a known concentration of test sample in a buffer solution (donor) may be covered with a 96-well filter plate wherein the porous filter membrane is impregnated with a mixture of brain polar lipid extract and dodecane and the wells are filled with a buffer solution containing 0% concentration of test sample (acceptor) such that the surface of each buffer solution is in contact with opposite sides of said impregnated filter membrane; after a measured period of time, the donor plate and acceptor plate are separated, the concentration of sample in each buffer solution is determined and the rate of permeation is calculated.
# In another embodiment of the invention, a high through-put permeability instrument such as the PSR4p instrument manufactured by pION Inc., Woburn, Mass. may be utilized. In this embodiment, a parallel artificial membrane assay (PAMPA) technique is employed using as artificial membrane a porous filter membrane impregnated with a mixture of brain polar lipid extract and dodecane.
# A 100 μL volume of each stock solution is placed into one well of a 96-well plate, and the well plate is placed in a PSR4p permeability analyzer manufactured by pION, Inc., Woburn, Mass. A 10 μL volume of stock solution is robotically added to a deep 96-well plate containing 2.0 mL of pH 7.4 buffer solution. The resultant mixture is mechanically stirred to form the donor solution. A 200 μL volume of each donor solution is placed robotically into 3 wells of a 96-well plate to afford the donor plate. A vial containing 20 mg of porcine polar brain lipid extract manufactured by Avanti Polar Lipids, Inc., Alabaster, Ala., dissolved in 1 mL of dodecane is placed in the reservoir of the PSR4p instrument. A 4 μL volume of this brain lipid solution is placed on the filter surface of each well of a 96-well microtiter filter well plate manufactured by Millipore Corp., Bedford, Mass., wherein the filter is a porous (0.45 μm) polyvinylidenefluoride material approximately 104 μm in thickness. The microtiter plate is then manually placed on an orbital shaker for 1 minute to yield a 96-well microtiter plate having a filter membrane permeated with a 2.0% wt/vol solution of porcine polar brain lipid extract in dodecane. A 200 μL volume of pH 7.4 buffer is robotically inserted into the wells of the thus-prepared microtiter 96-well filter plate to give a receptor plate, this receptor plate is placed on the donor plate to form a sandwich and allowed to stand at ambient temperature for 18 h.
# A plate washer manufactured by Tecan, Hombrechin-tikon, Switzerland is then used to prepare a UV transparent 96-well plate (UV plate). The receptor plate is removed from the sandwich, a 150 μL volume of the receptor solution is robotically placed in the UV plate, and the UV absorption at 190–500 nm of each receptor well is recorded. The UV plate is then replaced in the plate washer, washed again and a 150 μL volume of the donor solution is robotically placed in the UV plate and the UV absorption at 190–500 nm of each donor well is recorded.
SMILES,Pe (linear velocity of permeation),"Papp at 18 h, 25 µg/mL"
CN1C(C(=O)Nc2ccccn2)=C(O)c2ccccc2S1(=O)=O [Piroxicam],2.53 10^−6 cm/s,< 2 ×10⁻⁶ cm/s
C[C@]12CCC(=O)C=C1CC[C@@H]1[C@@H]2[C@@H](O)C[C@]2(C=O)[C@@H](C(=O)CO)CC[C@@H]12 [Aldosterone],1.19 10^−6 cm/s,< 2 ×10⁻⁶ cm/s
NCCc1ccc(O)c(O)c1 [Dopamine],0.16 10^−6 cm/s,< 2 ×10⁻⁶ cm/s
CCCC(C)C1(CC)C(=O)NC(=S)NC1=O (stereo not shown) [Thiopental],,> 4 ×10⁻⁶ cm/s
CC(C)(C)c1ccc(C(O)CCCN2CCC(C(O)(c3ccccc3)c3ccccc3)CC2)cc1 (stereo not shown) [Terfenadine],0.00 10^−6 cm/s,< 2 ×10⁻⁶ cm/s
COc1ccc(CCN2CCC(Nc3nc4ccccc4n3Cc3ccc(F)cc3)CC2)cc1 [Astemizole],10.66 10^−6 cm/s,> 4 ×10⁻⁶ cm/s
CN1C(=O)CC(=O)N(c2ccccc2)c2cc(Cl)ccc21 [Clobazam],16.85 10^−6 cm/s,> 4 ×10⁻⁶ cm/s
Cc1cc(NC(=O)C2=C(O)c3ccccc3S(=O)(=O)N2C)no1 [Isoxicam],0.25 10^−6 cm/s,< 2 ×10⁻⁶ cm/s
CN(C)CCCN1c2ccccc2Sc2ccccc21 [Promazine],8.84 10^−6 cm/s,> 4 ×10⁻⁶ cm/s
CN(C)C(=O)C(CCN1CCC(O)(c2ccc(Cl)cc2)CC1)(c1ccccc1)c1ccccc1 [Loperamide],0.00 10^−6 cm/s,< 2 ×10⁻⁶ cm/s
CN1C(C(=O)Nc2ccccn2)=C(O)c2sccc2S1(=O)=O [Tenoxicam],0.14 10^−6 cm/s,< 2 ×10⁻⁶ cm/s
Cc1nnc2n1-c1ccc(Cl)cc1C(c1ccccc1)=NC2 [Alprazolam],5.44 10^−6 cm/s,> 4 ×10⁻⁶ cm/s
CN(C)CCCN1c2ccccc2Sc2ccc(Cl)cc21 [Chlorpromazine],6.36 10^−6 cm/s,> 4 ×10⁻⁶ cm/s

# Source: patent publication US7060428B2, “Methods and compositions useful for the prediction of blood-brain barrier permeation” (Wyeth, priority 2001, dated 2006)
